The assay has as its target T1, ferredoxin PA1551 (Pseudomonas aeruginosa, UniProt Q9I3G6).
T1 sequence (Q9I3G6 1-471): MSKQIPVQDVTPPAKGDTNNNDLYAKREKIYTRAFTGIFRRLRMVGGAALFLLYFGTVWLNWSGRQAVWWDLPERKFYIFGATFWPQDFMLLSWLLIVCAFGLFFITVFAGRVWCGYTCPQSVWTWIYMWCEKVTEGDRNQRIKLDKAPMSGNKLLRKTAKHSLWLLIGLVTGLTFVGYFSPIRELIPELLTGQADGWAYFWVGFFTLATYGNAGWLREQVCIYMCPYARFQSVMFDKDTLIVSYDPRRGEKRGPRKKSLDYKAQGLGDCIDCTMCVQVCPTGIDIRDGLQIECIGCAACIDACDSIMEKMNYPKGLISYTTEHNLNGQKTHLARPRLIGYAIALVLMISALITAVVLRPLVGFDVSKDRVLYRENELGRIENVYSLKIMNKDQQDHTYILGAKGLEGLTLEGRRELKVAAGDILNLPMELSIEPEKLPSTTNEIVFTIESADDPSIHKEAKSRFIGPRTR
Nature of the assay: microscale thermophoresis. The format is binding. (In general: MST reads how a fluorescent partner responds to local heating, with and without ligand.)

The structures appear in SMILES notation.

`CCCCCCC(=O)NCc1c(O)c(=O)cc(C)n1C` [10d, 2-(heptanamido)methyl 3-hydroxy-1,6-dimethylpyridin-4(1H)-one]: the Kd (usually the concentration at which binding is half-saturated) was found to be 57 nM. This lies in the double-digit nanomolar range.

The values above are taken from PMC12775422 (NPJ Biofilms and Microbiomes, 2025).
